Experimental data taken from patent publication USRE42376E1, “Substituted 3-cyanoquinolines” (Wyeth Holdings Corporation, priority 1998, dated 2011).
In brackets after ≈: the same amount, converted by molar mass. Where a name gives a salt, the structure may show the parent alone. Values belong to the compound of their own block, whether it stands above or below them.

Key:
[1] = target: Epithelial Cell Kinase (ECK) (Homo sapiens, UniProt P29317); test: Inhibition of Epithelial Cell Kinase (ECK); assay type: biochemical
Chain of Epithelial Cell Kinase (ECK) (P29317 24-976, species assumed): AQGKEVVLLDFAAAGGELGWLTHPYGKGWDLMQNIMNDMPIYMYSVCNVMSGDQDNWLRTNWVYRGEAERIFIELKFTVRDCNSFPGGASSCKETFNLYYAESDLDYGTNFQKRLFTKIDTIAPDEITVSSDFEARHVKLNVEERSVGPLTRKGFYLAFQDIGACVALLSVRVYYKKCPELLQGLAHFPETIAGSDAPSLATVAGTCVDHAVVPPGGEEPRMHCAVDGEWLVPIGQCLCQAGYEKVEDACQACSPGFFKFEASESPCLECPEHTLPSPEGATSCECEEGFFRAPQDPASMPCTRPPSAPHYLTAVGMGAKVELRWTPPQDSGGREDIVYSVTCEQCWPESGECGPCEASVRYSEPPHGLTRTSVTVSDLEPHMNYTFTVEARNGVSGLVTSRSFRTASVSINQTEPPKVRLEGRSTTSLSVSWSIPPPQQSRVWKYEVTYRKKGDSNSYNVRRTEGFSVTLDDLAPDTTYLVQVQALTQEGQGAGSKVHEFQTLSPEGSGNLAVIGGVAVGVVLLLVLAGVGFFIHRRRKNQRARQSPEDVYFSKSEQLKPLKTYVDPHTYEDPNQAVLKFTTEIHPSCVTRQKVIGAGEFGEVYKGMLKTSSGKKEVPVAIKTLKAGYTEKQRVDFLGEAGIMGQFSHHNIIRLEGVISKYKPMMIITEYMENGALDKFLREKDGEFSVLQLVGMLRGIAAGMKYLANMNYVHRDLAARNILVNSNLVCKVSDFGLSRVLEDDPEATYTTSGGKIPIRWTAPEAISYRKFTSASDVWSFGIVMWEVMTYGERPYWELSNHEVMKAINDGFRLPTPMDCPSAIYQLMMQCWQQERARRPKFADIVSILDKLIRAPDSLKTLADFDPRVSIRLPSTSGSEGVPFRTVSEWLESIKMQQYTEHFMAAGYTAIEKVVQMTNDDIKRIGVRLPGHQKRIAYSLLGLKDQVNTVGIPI
Procedure: In this standard pharmacological test procedure, a biotinylated peptide substrate is first immobilized on neutravidin-coated microtiter plates. The test drug, the Epithelial Cell Kinase (ECK), Mg^++, sodium vanadate (a protein tyrosine phosphatase inhibitor), and an appropriate buffer to maintain pH (7.2) are then added to the immobilized substrate-containing microtiter wells. ATP is then added to initiate phosphorylation. After incubation, the assay plates are washed with a suitable buffer leaving behind phosphorylated peptide which is exposed to horse radish peroxidase (HRP)-conjugated anti-phosphotyrosine monoclonal antibody. The antibody-treated plates are washed again and the HRP activity in individual wells is quantified as a reflection of degree of substrate phosphorylation. […] Multiple entries for a given compound indication it was tested multiple times.

[2] = target: T1, recombinant human MEK 1 (MAPKK) and human ERK2 (MAPK) (Homo sapiens, UniProt P28482+Q02750); test: Mitogen Activated Protein Kinase (MAPK) coupled assay (Mek-Erk); assay type: biochemical; settings: separate entries = repeat tests
T1 construct: The recombinant enzymes used were prepared as GST fusion proteins of human ERK 2 and human MEK 1
T1 sequence (Q02750 whole entry, the tested form may be a part): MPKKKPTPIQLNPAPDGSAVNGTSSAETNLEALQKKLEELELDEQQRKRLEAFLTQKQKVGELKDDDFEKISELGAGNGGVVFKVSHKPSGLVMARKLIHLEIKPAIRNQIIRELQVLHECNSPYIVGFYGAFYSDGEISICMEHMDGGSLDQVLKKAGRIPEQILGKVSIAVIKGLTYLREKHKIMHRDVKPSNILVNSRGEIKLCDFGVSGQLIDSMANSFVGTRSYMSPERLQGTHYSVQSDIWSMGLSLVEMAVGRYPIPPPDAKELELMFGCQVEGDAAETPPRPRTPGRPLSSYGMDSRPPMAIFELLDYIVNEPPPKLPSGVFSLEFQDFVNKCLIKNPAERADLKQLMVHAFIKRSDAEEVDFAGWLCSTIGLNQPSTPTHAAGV
T1 sequence (P28482 2-360): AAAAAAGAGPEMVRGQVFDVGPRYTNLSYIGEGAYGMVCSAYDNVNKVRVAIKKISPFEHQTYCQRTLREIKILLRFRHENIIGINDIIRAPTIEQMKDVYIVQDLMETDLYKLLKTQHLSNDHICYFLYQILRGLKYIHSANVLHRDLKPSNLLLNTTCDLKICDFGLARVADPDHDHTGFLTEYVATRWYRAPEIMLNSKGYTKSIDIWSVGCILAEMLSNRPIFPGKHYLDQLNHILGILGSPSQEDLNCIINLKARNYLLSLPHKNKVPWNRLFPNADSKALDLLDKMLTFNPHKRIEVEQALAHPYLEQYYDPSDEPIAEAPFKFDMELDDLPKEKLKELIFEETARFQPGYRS
Procedure: To evaluate inhibitors of the MAP (mitogen activated protein) kinase a two component coupled standard pharmacological test procedure, which measures phosphorylation of a serine/threonine residue in an appropriate sequence in the substrate in the presence and absence of a putative inhibitor, was used. Recombinant human MEK 1 (MAPKK) was first used to activate recombinant human ERK2 (MAPK) and the activated MAPK (ERK) was incubated with substrate (MBP peptide or MYC peptide) in the presence of ATP, Mg^+2 and radiolabeled ^33P ATP. The phosphorylated peptide was captured on a P 81 phosphocellulose filter (paper filter or embedded in microtiter plate) washed and counted by scintillation methods. […]
The reaction was run as follows in 50 mM Tris kinase buffer, pH 7.4 in a reaction volume of 50 ul. […] The filters or MTP were briefly air dried before addition of scintillant and samples were counted in the appropriate scintillation counter set up for reading ^33P isotope. […]
The raw data was captured as cpm. […] Mean cpm data was tabulated by group and % inhibition by a test compound was calculated as (corrected cpm control-corrected. cpm sample/control) X 100=% inhibition. […] The results obtained for representative compounds of this invention are listed in TABLE 2 where there may be separate entries for the same compound; this is an indication that the compound was evaluated more than one time.

[3] = test system: Human Epidermoid Tumors (A431); test: In vivo inhibition of the growth of human epidermoid tumors (A431) in mice; set-up: species or system BALB/c nu/nu female mice; settings: for S/T = # of Survivors/# of Treated: Day +28 post tumor staging
Procedure: Human epidernoid carcinoma cells A-431 (American Type Culture Collection, Rockville, Md. #CRL-155) were grown in vitro as described above. A unit of 5×10^6 cells were injected SC into mice. […] Control animals received no drug. […] The % T/C (Tumor/Control) is determined by dividing the relative tumor growth of the treated group by the relative tumor growth of the placebo group and multiplying by 100.

MDAMB435 = test: Inhibition of cancer cell growth as measured by cell number, MDAMB435; assay type: cell-based, Human; settings: 48 hours exposure, Sulforhodamine B
Procedure: (§1) Human tumor cell lines were plated in 96-well plates (250 μl/well, 1-6×10^4 cells/ml) in RPMI 1640 medium, containing 5% FBS (Fetal Bovine Serum). […] After 48 hours exposure to test compounds, cells were fixed with trichloroacetic acid, and stained with Sulforhodamine B. After washing with trichloroacetic acid, bound dye was solubilized in 10 mM Tris base and optical density was determined using plate reader. Under conditions of the assay the optical density is proportional to the number of cells in the well. […] The test procedure is described in details by Philip Skehan et. al, J.Natl. Canc. Inst., 82, 1107-1112 (1990). […] Information about some of the cell lines used in these test procedures is available from the American Type Tissue Collection: Cell Lines and Hybridomas, 1994 Reference Guide, 8th Edition.

SW620 = test: Inhibition of cancer cell growth as measured by cell number, SW620; assay type: cell-based, Human; settings: 48 hours exposure, Sulforhodamine B
Procedure: as §1

A431 = test: Inhibition of cancer cell growth as measured by cell number, A431; assay type: cell-based, Human; settings: 48 hours exposure, Sulforhodamine B
Procedure: as §1

SKBR3 = test: Inhibition of cancer cell growth as measured by cell number, SKBR3; assay type: cell-based, Human; settings: 48 hours exposure, Sulforhodamine B
Procedure: as §1

3T3 = test: Inhibition of cell growth as measured by cell number, 3T3; assay type: cell-based; settings: 48 hours exposure, Sulforhodamine B
Procedure: as §1

Her2/3T3 = test: Inhibition of cell growth as measured by cell number, Her2/3T3; assay type: cell-based; settings: 48 hours exposure, Sulforhodamine B
Procedure: as §1

IC50 [1]: > 37.3 µM
melting point: 98 to 101 °C
Compound: COCCN(CC#CC(=O)Nc1ccc2ncc(C#N)c(Nc3cccc(Br)c3)c2c1)CCOC [Example 75, N-[4-[(3-Bromophenyl)amino]-3-cyano-6-quinolinyl]-4-(bis-(2-methoxyethyl)amino)-2-butynamide]

IC50 [1]: > 38.6 µM
IC50 [2]: 80 µM
Compound: COC[C@@H]1CCCN1CC#CC(=O)Nc1ccc2ncc(C#N)c(Nc3cccc(Br)c3)c2c1 [Example 79, 4-((2S)-2-Methoxymethylpyrrolidin-1-yl)but-2-ynoic Acid[4-(3-bromophenylamino)-3-cyanoquinolin-6-yl]amide]

IC50 [1]: > 21.6 µM
Compound: CCOc1c(Nc2ccc3ncc(C#N)c(Nc4cccc(Br)c4)c3c2)c(=O)c1=O [Example 85, 4-(3-Bromo-phenylamino)-6-(2-ethoxy-3,4-dioxo-cyclobut-1-enylamino)-quinoline-3-carbonitrile]

IC50 cell growth MDAMB435 (MDAMB435): 1.74 µg/mL
IC50 cell growth SW620 (SW620): 1.24 µg/mL
IC50 cell growth A431 (A431): 0.234 µg/mL
IC50 cell growth SKBR3 (SKBR3): 0.148 µg/mL
Compound: COC[C@@H]1CCCN1CC=CC(=O)Nc1cc2c(Nc3ccc(F)c(Cl)c3)c(C#N)cnc2cc1OC.Cl.Cl [Example 90, (S)-4-(2-Methoxymethyl-pyrrolidin-1-yl)-but-2-enoic Acid[4-(3-chloro-4-fluoro-phenylamino)-3-cyano-7-methoxy-quinolin-6-yl]-amide dihydrochloride]
IC50 cell growth 3T3 (3T3): 2.1 µg/mL
IC50 cell growth Her2/3T3 (Her2/3T3): 0.329 µg/mL

Continued, compound first:

Compound: COc1cc2ncc(C#N)c(Nc3ccc(F)c(Cl)c3)c2cc1N1CC1
melting point: 197 to 199 °C

Compound: COCCN(C)CC#CC(=O)Nc1ccc2ncc(C#N)c(Nc3cccc(Br)c3)c2c1 [Example 76, N-[4-[(3-Bromophenyl)amino]-3-cyano-6-quinolinyl]-4-(N-methoxyethyl-N-methylamino)-2-butynamide]
IC50 [1]: > 40.6 µM
melting point: 95 °C (dec.)

Compound: C=CCN(C)CC#CC(=O)Nc1ccc2ncc(C#N)c(Nc3cccc(Br)c3)c2c1 [Example 77, N-[4-[(3-Bromophenyl)amino]-3-cyano-6-quinolinyl]-4-(N-allyl-N-methylamino)-2-butynamide]
melting point: 133 to 135 °C

Compound: COCCN(C)CC=CC(=O)Nc1cc2c(Nc3ccc(F)c(Cl)c3)c(C#N)cnc2cc1OC [Example 89, 4-[(2-Methoxy-ethyl)-methyl-amino]-but-2-enoic Acid[4-(3-chloro-4-fluoro-phenylamino)-3-cyano-7-methoxy-quinolin-6-yl]-amide Dihydrochloride]
S/T = # of Survivors/# of Treated ([3]; Table 5, 10 mg/kg/dose PO days 1 through 10): 4/5
S/T = # of Survivors/# of Treated ([3]; Table 5, 40 mg/kg/dose PO days 1 through 10): 5/5
inhibition of tumor growth in vivo (in words) ([3]; given orally at 40 mg/Kg and 10 mg/Kg): effective inhibitor of tumor growth in vivo

Compound: COc1cc2ncc(C#N)c(Nc3ccc(F)c(Cl)c3)c2cc1NC(=O)C=CCN1CCC2(CC1)OCCO2 [Example 92, 4-(1,4-Dioxa-8-aza-spiro[4.5]dec-8-yl)-but-2-enoic Acid[4-(3-chloro-4-fluoro-phenylamino)-3-cyano-7-methoxy-quinolin-6-yl]-amide]
IC50 cell growth MDAMB435 (MDAMB435): 3.32 µg/mL (≈ 6.01 µM)
IC50 cell growth SW620 (SW620): 2.51 µg/mL (≈ 4.55 µM)
IC50 cell growth A431 (A431): 0.283 µg/mL (≈ 0.513 µM)
IC50 cell growth SKBR3 (SKBR3): 0.188 µg/mL (≈ 0.341 µM)
IC50 cell growth 3T3 (3T3): 2.79 µg/mL (≈ 5.05 µM)
IC50 cell growth Her2/3T3 (Her2/3T3): 0.35 µg/mL (≈ 0.634 µM)
S/T = # of Survivors/# of Treated ([3]; Table 4, 10 mg/kg/dose PO days 1 through 10): 5/5
S/T = # of Survivors/# of Treated ([3]; Table 4, 40 mg/kg/dose PO days 1 through 10): 5/5
inhibition of tumor growth in vivo (in words) ([3]; given orally at 40 mg/Kg): effective inhibitor of tumor growth in vivo
